Measured values: patent US12319954B2, “Morphinan compounds” (Concert Pharmaceuticals, Inc., priority 2007, dated 2025)

What was measured:
[1] = Metabolic stability in human liver microsomes; details: for remained intact after 30 minutes of incubation: 0.25 μM compound, 2 mg/mL human liver microsomes, FIG. 2
Protocol: (§1) The objectives of this study were to determine the metabolic stability of the test compounds in pooled human and […] liver microsomal incubations. Samples of the test compounds, exposed to pooled human or […] liver microsomes, were analyzed using HPLC-MS (or MS/MS) detection. For determining metabolic stability, multiple reaction monitoring (MRM) was used to measure the disappearance of the test compounds.
(§2) Experimental Procedures: Human liver and Cynomolgus monkey liver microsomes were obtained from XenoTech, LLC (Lenexa, KS). The incubation mixtures were prepared as follows:
(§3) Incubation of Test Compounds with Liver Microsomes: The reaction mixture, minus cofactors, was prepared. An aliquot of the reaction mixture (without cofactors) was incubated in a shaking water bath at 37° C. for 3 minutes. Another aliquot of the reaction mixture was prepared as the negative control. The test compound was added into both the reaction mixture and the negative control at a final concentration of 0.10, 0.25, or 1 μM. An aliquot of the reaction mixture was prepared as a blank control, by the addition of plain organic solvent (no test compound is added). The reaction was initiated by the addition of cofactors (not added to the negative controls), and then incubated in a shaking water bath at 37° C. Aliquots (200 μL) were withdrawn in triplicate at multiple time points and combined with 800 μL of ice-cold 50/50 acetonitrile/dH2O to terminate the reaction.
All samples were analyzed using LC-MS (or MS/MS). An LC-MRM-MS/MS method is used for metabolic stability. For testing in cynomolgus monkey liver microsomes, a final concentration of 1 μM of each compound and 0.5 mg/mL of microsomes were used.

[2] = monkeys, FIG. 6
Protocol: OBJECTIVE—The objective of this study was to collect plasma samples from Cynomolgus Monkeys at various time points following oral administration of test articles in combination. The samples were used for the determination of plasma drug levels by LC/MS/MS for estimating pharmacokinetic parameters. This study was conducted in accordance with Shanghai Medicilon Inc. Standard Operating Procedures (SOPs). The Sponsor provided the test compounds and internal standard compound.
EXPERIMENTAL DESIGN—Four Cynomolgus Monkeys were used in this study.
The combination dose was prepared by mixing both by 1:1 to yield a concentration of 1 mg/mL for each compound. […] Quinidine was prepared in DMI:EtOH:PG:water (10:15:35:40, v/v/v/v) at 3 mg/mL and dosed separately. The doses were given BID orally with an interval of 12 hours. […] Dosing volume of Quinidine was determined based on the dose each animal was getting. Dose volumes for each test animal was determined based on individual body weight. Body weights were taken on each day of dose administration and were be recorded.
Urine Sample Collection—Urine samples in between two doses on Day 5 (for 12 hours between doses 9 and 10) were collected in a plate and quantified by volume. After collection, the urine samples were be stored in −20° C. and then shipped back to client. […]

[3] = Plasma levels in cynomolgus monkeys after oral BID co-dosing of Compound 101 and dextromethorphan, with or without quinidine; format: in vivo
Protocol: Blood Sample Collection—Blood sampling tOOK place on Day 6 after oral administration of the last dose (Dose 11). Blood (approximately 1 mL) was collected via femoral vein into tubes containing sodium heparin anticoagulant at 0.25, 0.5, 1, 1.5, 2, 3.5, 6 and 8 hours. The plasma was separated via centrifugation and stored in −20° C. before analysis.
Dilution using cynomolgus monkey plasma blank were applied if the sample concentration was over the ULOQ of calibration standard curve. The data acquisition and control system was created using Analyst 1.4 software from ABI Inc.

[4] = Metabolic stability in cynomolgus monkey liver microsomes; details: 1 μM compound, 0.5 mg/mL microsomes; FIG. 1
Protocol: as §1, §2
as §3, with “Aliquots (200 μL) were withdrawn in triplicate at multiple time points and combined with 800 μL of ice-cold 50/50 acetonitrile/dH2O to terminate the reaction.” left out
All samples were analyzed using LC-MS (or MS/MS). […]

[5] = target: T1, Human CYP2D6+P450 Reductase SUPERSOMES (Homo sapiens, UniProt P10635); test: Metabolic stability in CYP2D6 SUPERSOMES; format: in vitro ADME; details: 0.1 μM compound, 20 minutes
T1 construct: purchased GenTest (Woburn, MA, USA); host or cells: insect cells (inferred from the negative control, insect cell microsomes)
T1 sequence (P10635 whole entry): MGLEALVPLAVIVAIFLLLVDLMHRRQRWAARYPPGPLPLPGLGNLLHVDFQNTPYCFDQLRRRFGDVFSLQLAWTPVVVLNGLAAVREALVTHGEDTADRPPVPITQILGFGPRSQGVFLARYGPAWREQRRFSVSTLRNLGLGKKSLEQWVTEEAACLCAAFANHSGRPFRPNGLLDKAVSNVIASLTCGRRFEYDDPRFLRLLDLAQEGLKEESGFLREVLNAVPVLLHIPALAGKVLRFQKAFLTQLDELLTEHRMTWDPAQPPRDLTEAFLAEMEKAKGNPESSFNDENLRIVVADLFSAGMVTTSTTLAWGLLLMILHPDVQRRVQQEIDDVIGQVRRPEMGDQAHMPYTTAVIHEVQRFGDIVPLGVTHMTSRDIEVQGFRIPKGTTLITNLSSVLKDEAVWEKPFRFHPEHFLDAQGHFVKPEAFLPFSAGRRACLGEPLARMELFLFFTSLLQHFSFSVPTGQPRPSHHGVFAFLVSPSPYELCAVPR
Protocol: Human CYP2D6+P450 Reductase SUPERSOMES™ were purchased from GenTest (Woburn, MA, USA). […] Aliquots (50 μL) were removed from each sample and placed in wells of a multi-well plate at 0, 2, 5, 7, 12, 20, and 30 minutes and to each was added 50 μL of ice cold acetonitrile with 3 μM haloperidol as an internal standard to stop the reaction.
Plates containing the removed aliquots were then placed in −20° C. freezer for 15 minutes to cool. After cooling, 100 μL of deionized water was added to all wells in the plate. Plates were then spun in the centrifuge for 10 minutes at 3000 rpm. A portion of the supernatant (100 μL) was then removed, placed in a new plate and analyzed using Mass Spectrometry.

Row | Molecule | remained intact after 30 minutes of incubation [1] | urine level of parent compound compared to dextromethorphan ([2]; at the same quinidine concentration) | plasma levels compared to dextromethorphan ([3]; co administered with the same amount of quinidine, FIG. 5) | metabolism to deuterated dextrorphan isotopologues (plasma) ([3]; no quinidine, FIG. 4) | stability in monkey liver microsomes compared with dextromethorphan [4] | intact compound at the 20 minute time point with 2D6 Supersomes [5] | urine levels, effect of quinidine concentration [2] | remained intact after a 30 minute exposure ([1]; 0.5 mg/mL human liver microsomes) [%]
1 | [2H]C([2H])([2H])Oc1ccc2c(c1)[C@]13CCCC[C@@H]1[C@H](C2)N(C([2H])([2H])[2H])CC3 [Compound 101, (+)-3-d3-methoxy-17-d3-methyl-(9α, 13α, 14α)-morphinan] | approximately 45% | less Compound 101 in the urine than dextromethorphan | greater than dextromethorphan plasma levels | reduced relative to metabolism of dextromethorphan to dextrorphan | greater stability than dextromethorphan | – | – | –
2 | COc1ccc2c(c1)[C@]13CCCC[C@@H]1[C@H](C2)N(C)CC3 [Dextromethorphan, (+)-3-methoxy-17-methyl-(9α, 13α, 14α)-morphinan, reference compound] | about 33% | – | – | – | – | no intact dextromethorphan could be detected | affected by increasing quinidine concentration | –
3 | (+)-3-d3-methoxy-17-methyl-(9α, 13α, 14α)-morphinan [Compound 100] | ~42% | – | – | – | greater stability than dextromethorphan | – | – | ~71
